Measured values from article PMC5853558, “De novo identification of lipid II binding lipopeptides with antibacterial activity against vancomycin-resistant bacteria” (Chemical Science, 2017).
In brackets after ≈: the same amount, converted by molar mass. *1 amine or outer side, *2 acyl side, *3 side chain or, on linkers, in order; H or OH if unused. Where a SMILES comes first, the peptide text is derived from it. Bridges are numbered along the chain shown (N, C = ends). [ ]: non-standard residue; d: D form. The star is where a group is joined. TBMB = c1c(C[*:1])cc(C[*:3])cc1C[*:2]; NHDecyl = CCCCCCCCCCN*

Legend:
M. luteus (NCTC2665) = assay: microbe, parasite or virus in culture; type: cell-based, Micrococcus luteus; conditions: for MIC of Ala scan of P8-D against M. luteus: Supplemental table S8, non-lipidated P8 variants, broth microdilution, highest tested 512 µg/ml
Procedure: (§1) Section 4 Biological and biochemical experiments
(§2) 4.1 Minimum inhibitory concentration assay
(§3) MIC values were determined by using the broth microdilution method. Peptides were dissolved first in DMSO and diluted with broth so that the final peptide concentration was 1024 µg/ml and the DMSO concentration was 4%. Peptide serial dilutions were made in TSB in a polypropylene 96-wells plate using 50 µl volumes. An overnight culture of the organism of interest was diluted to and OD600 of 0.01 and grown until they reach 0.5. The culture was then diluted to 1 x 10^6 CFU/ml and 50 µl of this suspension was added to each well. The highest concentrations were then 512 µg/ml peptide and 2% DMSO. The plates were incubated at the preferred growth temperature of the organism that was used and 250 rpm. […] When […]
(§4) determining the MICs of the lipidated peptides, the lipopeptides were first dissolved in DMSO and diluted with TSB so that the peptide concentration was 128 µg/ml and the DMSO concentration was 4%. After inoculation the highest peptide concentration evaluated was 64 µg/ml and the DMSO concentration was 2%. A DMSO control was tested for each strain to ensure the DMSO did not affect the growth of the particular strain. […]

B. subtilis (168) = assay: microbe, parasite or virus in culture; type: cell-based; conditions: Supplemental table S6, lipidated phage display hits; n.a. = not active, highest tested conc 64 µg/ml
Procedure: as §1, §2, §3, §4

SMILES	MIC of Ala scan of P8-D against M. luteus (M. luteus (NCTC2665))	other results
CCCCCCCCCCNC(=O)CNC(=O)[C@@H]1CSCc2cc3cc(c2)CSC[C@H](NC(=O)[C@H](CC(N)=O)NC(=O)[C@H](Cc2ccccc2)NC(=O)[C@H](CCCCN)NC(=O)[C@H](CCC(N)=O)NC(=O)[C@@H]2CCCN2C(=O)[C@H](CCCNC(=N)N)NC(=O)[C@@H](NC(=O)[C@H](C)N)CSC3)C(=O)N[C@@H]([C@@H](C)CC)C(=O)N[C@@H](CO)C(=O)N[C@@H](C)C(=O)N[C@@H](CC(N)=O)C(=O)N[C@@H]([C@@H](C)CC)C(=O)N[C@@H](CCCNC(=N)N)C(=O)N1 [Peptide P4-C10] (H-ACRPQKFNCISANIRCG-NHDecyl; linker 2-9-16 via TBMB; N-terminus assumed)	–	MIC M. luteus (M. luteus (NCTC2665); Supplemental table S6, lipidated phage display hits, n.a. = not active, highest tested conc 64 µg/ml): 8 µg/mL (≈ 3.75 µM); MIC B. subtilis (B. subtilis (168)): 8 to 16 µg/mL
CC(C)C[C@H]1NC(=O)[C@@H](CO)NC(=O)[C@@H](CCC(N)=O)NC(=O)[C@@H](CC(C)C)NC(=O)[C@@H](CC(C)C)NC(=O)[C@H](NC(=O)[C@@H](C)N)CSCc2cc3cc(c2)CSC[C@@H](NC(=O)[C@@H](C)NC1=O)C(=O)N1CCC[C@@H]1C(=O)N[C@H](Cc1ccc(O)cc1)C(=O)N[C@H](CO)C(=O)N[C@H]([C@H](C)O)C(=O)N[C@H](Cc1c[nH]cn1)C(=O)N[C@H](CCCNC(=N)N)C(=O)N[C@@H](C(=O)NCC(N)=O)CSC3 [Peptide P8-D-L8A] (H-[dA][dC][dL][dL][dQ][dS][dL][dA][dC][dP][dY][dS][dT][dH][dR][dC]G-NH2; linker 2-9-16 via TBMB; N-terminus assumed)	128 to 256 µg/mL	–
CC(C)C[C@H]1NC(=O)[C@@H](C)NC(=O)[C@@H](CCC(N)=O)NC(=O)[C@@H](CC(C)C)NC(=O)[C@@H](CC(C)C)NC(=O)[C@H](NC(=O)[C@@H](C)N)CSCc2cc3cc(c2)CSC[C@@H](NC(=O)[C@@H](CC(C)C)NC1=O)C(=O)N1CCC[C@@H]1C(=O)N[C@H](Cc1ccc(O)cc1)C(=O)N[C@H](CO)C(=O)N[C@H]([C@H](C)O)C(=O)N[C@H](Cc1c[nH]cn1)C(=O)N[C@H](CCCNC(=N)N)C(=O)N[C@@H](C(=O)NCC(N)=O)CSC3 [Peptide P8-D-S6A] (H-[dA][dC][dL][dL][dQ][dA][dL][dL][dC][dP][dY][dS][dT][dH][dR][dC]G-NH2; linker 2-9-16 via TBMB; N-terminus assumed)	64 to 128 µg/mL	–
CC(C)C[C@@H]1NC(=O)[C@@H]2CSCc3cc(cc(c3)CSC[C@@H](C(=O)NCC(N)=O)NC(=O)[C@H](CC(=O)O)NC(=O)[C@H](C(C)C)NC(=O)[C@H]([C@@H](C)O)NC(=O)[C@H](CCC(N)=O)NC(=O)[C@H](Cc3ccccc3)NC1=O)CSC[C@H](NC(=O)[C@H](C)N)C(=O)N[C@@H](Cc1ccc(O)cc1)C(=O)N1CCC[C@H]1C(=O)N[C@@H](C(C)C)C(=O)N[C@@H](CC(=O)O)C(=O)N[C@@H](Cc1c[nH]c3ccccc13)C(=O)N[C@@H](Cc1ccc(O)cc1)C(=O)N2 [Peptide P6] (H-ACYPVDWYCLFQTVDCG-NH2; linker 2-9-16 via TBMB; N-terminus assumed)	–	MIC against M. luteus (M. luteus (NCTC2665); Table 1, non-lipidated bicyclic peptides, broth microdilution in TSB, 16 h, read visually, n.a. = no activity, highest tested concentration 512 μg mL^–1): 128 μg mL^–1
CC(C)C[C@H]1NC(=O)[C@@H](C)NC(=O)[C@@H](CO)NC(=O)[C@@H](CCC(N)=O)NC(=O)[C@@H](CC(C)C)NC(=O)[C@@H](CC(C)C)NC(=O)[C@H](NC(=O)[C@@H](C)N)CSCc2cc3cc(c2)CSC[C@@H](NC1=O)C(=O)N1CCC[C@@H]1C(=O)N[C@H](Cc1ccc(O)cc1)C(=O)N[C@H](CO)C(=O)N[C@H]([C@H](C)O)C(=O)N[C@H](Cc1c[nH]cn1)C(=O)N[C@H](CCCNC(=N)N)C(=O)N[C@@H](C(=O)NCC(N)=O)CSC3 [Peptide P8-D-L7A] (H-[dA][dC][dL][dL][dQ][dS][dA][dL][dC][dP][dY][dS][dT][dH][dR][dC]G-NH2; linker 2-9-16 via TBMB; N-terminus assumed)	512 µg/mL	–
